Laboratory results taken from US12187663B2, “Thyromimetics with a biphenylmethane scaffold and their use” (INTERNATIONAL SOCIETY FOR DRUG DEVELOPMENT S.R.L., priority 2019, dated 2025).

Key:
[1] = tested on: ACC; assay: Western blot of phosphorylated ACC in HepG2 cells; type: cell-based, Human; details: twenty-four hours of treatment
Experimental: Human hepatocellular carcinoma cells (HepG2), obtained from American Type Culture Collection (Manassas, Va., USA), were cultured in low-glucose (LG) Dulbecco's modified Eagle's medium (DMEM) ([…], Invitrogen, Carlsbad, Calif., USA) or high-glucose (HG) DMEM ([…]) supplemented with 10% fetal bovine serum (FBS) and […] penicillin/streptomycin in an atmosphere of 5% CO2 at 37° C. These cells were then treated with tested compounds at various concentrations for 24 h. After treatments, cells were lysed in a buffer containing 20 mM Tris-HCl (pH 7.5), 0.9% NaCl, 0.2% Triton X-100, and 1% of the protease inhibitor cocktail (Sigma-Aldrich, Milan, Italy) and then stored at −80° C. for further western blot analysis. All the analyses were conducted on cells between the third and the sixth passage.
Proteins (20-30 μg) were separated on CriterionTGX™ gel (4-20%) and transferred on Immuno-PVDF membrane (Biorad, Milan, Italy) for 1 h. Blots were incubated with the primary antibody at 4° C. overnight. All the polyclonal antibodies for the protein of interest were purchased from Santa Cruz Biotechnology, Inc., Dallas, TX, USA. Then, blots were washed 3 times for 10 minutes with 1×TBS, 0.1% Tween® 20 and incubated for 1 h with secondary antibody (peroxidase-coupled anti rabbit in 1×TBS, 0.1% Tween®20). […] Band densitometric analysis was performed using Image Lab Software (Biorad, Milan, Italy).
The liver is a major organ responsible for most functions of cellular metabolism and a mediator between dietary and endogenous sources of energy for extrahepatic tissues. In this context, AMPK constitutes an intrahepatic energy sensor regulating physiological energy dynamics by limiting anabolism and stimulating catabolism, thus increasing ATP availability. Once activated, AMPK phosphorylates its downstream substrates to reduce ATP-consuming anabolic pathways, including cholesterol, fatty acid, and triacylglycerol synthesis, and increases ATP-generating catabolic pathways, including fatty acid oxidation and lipolysis. […]

[2] = Solubility in water; type: physicochemical
[3] = Serum levels of cholesterol, glucose, transaminases, amylase, lipase, bilirubin and triglycerides; type: in vivo, F-344 rats; details: rats, 3 days treatment
Experimental: (§1) Five-week-old male F-344 rats purchased from Charles River (Milano, Italy) were maintained on a standard laboratory diet (Ditta Mucedola, Milano, Italy). The animals were given food and water ad libitum with a 12-h light/dark daily cycle and were acclimated for 1 week before the start of the experiment. All procedures were performed in accordance with the Guidelines for the Care and Use of Laboratory Animals and were approved by the Italian Ministry of Health. […] A control group received the vehicle (DMSO 5% in corn oil). Additional two groups received daily injections of either IS25 or TG68 at the dose of 75 μg/100 g b.wt. intraperitoneally for 3 days. For the measurement of hepatocyte proliferation, animals received bromodeoxyuridine (BrdU; 1 g/1 L) in drinking water during the 3-day treatment period (FIGS. 7A and B).
Lack of severe liver toxicity was confirmed by measuring the levels of serum transaminases and bilirubin (FIG. 8) that were within the range of normal values for F-344 rats of the same age (Charles River datasheet). Pancreas damage was also evaluated by measuring the levels of amylase and lipase.

[4] = as above; type: in vivo, F-344 rats; details: rats, intragastric administration, 3 days
[5] = tested on: hepatocytes; assay: Mitotic activity of hepatocytes (BrdU incorporation); type: in vivo, F344 rats; details: 3 days; for hepatocyte proliferation (mitogenic effect): i.p. injection 75 μg/100 g b.w.; for hepatocyte proliferation (BrdU incorporation): intragastric (i.g.) 50, 75 and 100 μg/100 g b.w.
From the text: FIG. 7. […] A. Labeling Index (L.I.) of hepatocytes from F344 rats subjected to the treatment with test compounds was expressed as number of BrdU-positive hepatocyte nuclei/100 nuclei. Results were expressed as means±S.E. of 3-5 rats per group. At least 3000 hepatocytes per liver were scored. *P<0.05; **P<0.01.
as §1

Structure (SMILES)	ACC phosphorylation (p-ACC) [1]	solubility in water [2]	serum amylase (pancreas damage) [3]	serum cholesterol [3]	serum glucose [3]	serum lipase (pancreas damage) [3]	serum TGs level [4]	hepatocyte proliferation (mitogenic effect) [5]	hepatocyte proliferation (BrdU incorporation) [5]
Cc1cc(OCC(=O)O)cc(C)c1Cc1ccc(N)c(C(C)C)c1 [IS25, 2-(4-(4-amino-3-isopropylbenzyl)-3,5-dimethylphenoxy)acetic acid]	significant ACC phosphorylation	very soluble in water	No significant changes	no change	no change	No significant changes	significantly reduced	the mitogenic effect was lost	induced a dose dependent hepatocyte proliferation
CC(=O)Nc1ccc(Cc2c(C)cc(OCC(=O)O)cc2C)cc1C(C)C [TG68, 2-(4-(4-acetamido-3-isopropylbenzyl)-3,5-dimethylphenoxy)acetic acid]	significant ACC phosphorylation	very soluble in water	No significant changes	no change	no change	No significant changes	significantly reduced	the mitogenic effect was lost	induced a dose dependent hepatocyte proliferation
